Patent US20230149919A1, “CASSETTE FOR PRESERVATION OF NATURAL AND BIOENGINEERED TISSUES” (TISSUE TESTING TECHNOLOGIES LLC, priority 2021, published 2023)

Test system: Epiderm construct
Experiment: Viability of constructs with additives in culture medium before and after vitrification
Format: cell-based, Human
Conditions: added to culture medium before and after vitrification, αT and QVD together
Method: Resazurin Assay: Was used to measure the metabolic activity and has the advantage of being non-toxic so constructs can be assessed before and several times after treatment. Resazurin dye (alamarBlue) was used to assess cell viability by measuring the oxidation/reduction reactions that take place within cells. The dye is added directly to the culture wells and the plates were incubated for 3 hours at 37° C. Upon reduction, the dye changes color and this was measured and quantified using a fluorescent microplate reader at an excitation wavelength of 544 nm and an emission wavelength of 590 nm.
The initial vitrification protocol was one that was developed for use with vein segments and rings. The process uses a 6 step (15-minute incubation) protocol to add the cryoprotectant (CPA) solution into the construct. The insert is then left in a glass scintillation vial in 1.5 mL vitrification solution with 0.3 mL solution inside the insert. The vials are cooled rapidly to −100° C. then slowly cooled to −135° C. where they are stored until rewarming. During rewarming, the samples are warmed slowly to −100° C. then rapidly to room temperature. The vitrification solution is removed using 7 sequential removal steps at 15 minutes each (FIG. 4, original protocol). Several changes were made to this protocol to produce better and sustainable viability for the Epiderm construct.
A series of changes were made to how the vitrification solution was loaded and unloaded from the construct. These changes included shorter incubation steps (5 minutes instead of 15), using a lower concentration of cryoprotectant to load the full-strength vitrification solution into the construct and also a more mechanical change that involved dilution of the full strength vitrification solution to half its concentration by a simple dilution step as opposed to removal from one solution to the next. This shortened the amount of time that the construct was exposed to the full-strength vitrification solution reducing potential cytotoxicity caused by exposure to the vitrification solution (modified protocol).
The arrived at protocol starts with an overnight incubation with αT and QVD. The next day, the constructs are vitrified using the 6-step addition protocol, 5 minutes each step, to add the cryoprotectant (CPA) solution into the construct. The insert is then left in the final vitrification solution with 0.3 mL solution inside the insert. The vials are cooled rapidly to −100° C. then slowly cooled to −135° C. where they are stored until rewarming. During rewarming, the samples are warmed slowly to −100° C. then rapidly to room temperature. The vitrification solution is removed using 7 sequential removal steps at 5 minutes each. […]

Compound | Effect of additive on construct viability | Effect of additive on construct viability (listed as QVD) | Effect of additive on construct viability (listed as αT)
CC(C)[C@H](NC(=O)c1ccc2ccccc2n1)C(=O)N[C@@H](CC(=O)O)C(=O)COc1c(F)cccc1F [Q-VD-OPH, quinoline-Val-Asp-difluorophenoxymethyl ketone] | improved viability | significant improvement | –
Cc1c(C)c2c(c(C)c1O)CC[C@@](C)(CCC[C@H](C)CCC[C@H](C)CCCC(C)C)O2 [α-tocopherol] | improved viability | – | significant improvement
